Experiments:
[1] = tested on: HT29; test: Cell viability assay; type: cell-based; details: Homo sapiens, HT-29, HT29 cells, 24 hrs, read-out: Inhibition of cancer cell proliferation IC50
Experimental: (§1) Cells were cultured at a density of 5×10^4 (U937) or 1×10^4 (PC-3, DU145, M12, HT29) cells per well in flat bottomed 96-well plates and treated with various concentrations of test compound at 37° C. (5% CO2). After 24 h, 20 μL of CellTiter 96® Aqueous One Solution Reagent (Promega, Madison, Wis.) was added to each well according to the manufacturer's instructions. After 1 hour, the cell viability was determined by measuring the absorbance at 490 nm using a micro-plate reader.

[2] = tested on: U937; test: Cell viability assay; type: cell-based; details: Homo sapiens, U-937, U937 cells, 24 hrs, read-out: Inhibition of cancer cell proliferation IC50
Experimental: as §1

[3] = tested on: M12; test: Cell viability assay; type: cell-based; details: M12 cells, 24 hrs, read-out: Inhibition of cancer cell proliferation IC50
Experimental: as §1

[4] = tested on: PC-3; test: Cell viability assay; type: cell-based; details: Homo sapiens, PC-3 cells, 24 hrs, read-out: Inhibition of cancer cell proliferation IC50
Experimental: as §1

[5] = tested on: DU145; test: Cell viability assay; type: cell-based; details: Homo sapiens, DU-145, DU145 cells, 24 hrs, read-out: Inhibition of cancer cell proliferation IC50
Experimental: as §1

[6] = biological target: T1, ABL (Homo sapiens, UniProt P00519); test: In vitro kinase screening; type: biochemical; details: 10 μM concentration
T1 construct: Caliper Life Sciences (screening service)
Experimental: (§2) Formula II [3-(2-aminoethyl)-5-(3-cyclohexylpropylidene)thiazolidine-2,4-dione] was screened against a panel of kinases at 10 μM concentration by Caliper Life Sciences according to their established protocol.

[7] = biological target: T2, Erk1 (Homo sapiens, UniProt P27361); test: In vitro kinase screening; type: biochemical; details: Erk1, 10 μM concentration
T2 construct: Caliper Life Sciences (screening service)
Experimental: as §2

[8] = biological target: T3, p38a (Homo sapiens, UniProt Q16539); test: In vitro kinase screening; type: biochemical; details: 10 μM concentration
T3 construct: Caliper Life Sciences
Experimental: as §2

[9] = biological target: T4, FYN (Homo sapiens, UniProt P06241); test: In vitro kinase screening; type: biochemical; details: 10 μM concentration
T4 construct: Caliper Life Sciences (screening service)
Experimental: as §2

[10] = biological target: T5, KDR (Homo sapiens, UniProt P35968); test: In vitro kinase screening; type: biochemical; details: 10 μM concentration
T5 construct: Caliper Life Sciences
Experimental: as §2

[11] = biological target: T6, CDK2 (Homo sapiens, UniProt P24941); test: In vitro kinase screening; type: biochemical; details: CDK2, 10 μM concentration
T6 construct: Caliper Life Sciences (screening service)
Experimental: as §2

[12] = biological target: T7, CAMk4 (Homo sapiens, UniProt Q16566); test: In vitro kinase screening; type: biochemical; details: CAMk4, 10 μM concentration
T7 construct: Caliper Life Sciences (screening service)
Experimental: as §2

[13] = biological target: T8, GSK3b (Homo sapiens, UniProt P49841); test: In vitro kinase screening; type: biochemical; details: 10 μM concentration
T8 construct: Caliper Life Sciences (screening service)
Experimental: as §2

[14] = biological target: T9, DYRK1a (Homo sapiens, UniProt Q13627); test: In vitro kinase screening; type: biochemical; details: 10 μM concentration
T9 construct: Caliper Life Sciences (screening service)
Experimental: as §2

[15] = biological target: T10, PAK2 (Homo sapiens, UniProt Q13177); test: In vitro kinase screening; type: biochemical; details: PAK2, 10 μM concentration
T10 construct: Caliper Life Sciences
T10 sequence (Q13177 whole entry, species assumed): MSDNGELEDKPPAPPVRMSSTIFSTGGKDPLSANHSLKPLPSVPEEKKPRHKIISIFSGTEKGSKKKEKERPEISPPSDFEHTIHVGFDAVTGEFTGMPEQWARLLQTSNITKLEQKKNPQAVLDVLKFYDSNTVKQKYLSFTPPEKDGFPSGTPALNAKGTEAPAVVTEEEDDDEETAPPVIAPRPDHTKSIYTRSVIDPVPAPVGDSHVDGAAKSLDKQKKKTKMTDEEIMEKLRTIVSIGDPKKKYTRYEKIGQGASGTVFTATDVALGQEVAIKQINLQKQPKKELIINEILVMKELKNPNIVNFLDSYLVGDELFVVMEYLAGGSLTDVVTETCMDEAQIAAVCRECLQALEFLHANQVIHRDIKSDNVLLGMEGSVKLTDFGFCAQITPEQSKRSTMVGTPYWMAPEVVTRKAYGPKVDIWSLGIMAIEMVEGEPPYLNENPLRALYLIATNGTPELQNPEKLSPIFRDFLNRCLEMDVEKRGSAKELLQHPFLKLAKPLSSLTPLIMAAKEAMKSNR
Experimental: as §2

[16] = biological target: T11, RSK1 (Homo sapiens, UniProt Q15418); test: In vitro kinase screening; type: biochemical; details: RSK1, 10 μM concentration
T11 construct: Caliper Life Sciences
T11 sequence (Q15418 whole entry, species assumed): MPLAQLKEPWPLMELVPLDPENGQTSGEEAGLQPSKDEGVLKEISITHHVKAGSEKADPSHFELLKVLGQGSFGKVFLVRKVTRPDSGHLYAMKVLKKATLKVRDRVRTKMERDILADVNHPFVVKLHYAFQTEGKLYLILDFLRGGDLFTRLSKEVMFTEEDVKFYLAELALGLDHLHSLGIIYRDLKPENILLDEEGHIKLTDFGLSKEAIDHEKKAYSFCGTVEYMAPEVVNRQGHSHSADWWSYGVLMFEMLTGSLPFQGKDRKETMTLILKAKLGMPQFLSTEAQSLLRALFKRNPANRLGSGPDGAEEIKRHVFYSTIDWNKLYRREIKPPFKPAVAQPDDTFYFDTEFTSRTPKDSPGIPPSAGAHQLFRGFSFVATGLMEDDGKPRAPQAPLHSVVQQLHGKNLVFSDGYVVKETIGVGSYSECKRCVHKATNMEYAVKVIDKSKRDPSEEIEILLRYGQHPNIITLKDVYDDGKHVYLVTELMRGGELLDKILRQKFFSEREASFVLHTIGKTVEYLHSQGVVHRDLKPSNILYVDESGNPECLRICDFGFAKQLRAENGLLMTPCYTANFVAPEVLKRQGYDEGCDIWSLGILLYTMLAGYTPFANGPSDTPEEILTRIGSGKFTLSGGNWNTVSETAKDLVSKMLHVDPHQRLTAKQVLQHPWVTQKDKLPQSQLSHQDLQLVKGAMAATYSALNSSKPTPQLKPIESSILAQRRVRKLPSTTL
Experimental: as §2

[17] = biological target: T12, LYN (Homo sapiens, UniProt P07948); test: In vitro kinase screening; type: biochemical; details: 10 μM concentration
T12 construct: Caliper Life Sciences
Experimental: as §2

[18] = biological target: T13, BTK (Homo sapiens, UniProt Q06187); test: In vitro kinase screening; type: biochemical; details: 10 μM concentration
T13 construct: Caliper Life Sciences (screening service)
T13 sequence (Q06187 whole entry): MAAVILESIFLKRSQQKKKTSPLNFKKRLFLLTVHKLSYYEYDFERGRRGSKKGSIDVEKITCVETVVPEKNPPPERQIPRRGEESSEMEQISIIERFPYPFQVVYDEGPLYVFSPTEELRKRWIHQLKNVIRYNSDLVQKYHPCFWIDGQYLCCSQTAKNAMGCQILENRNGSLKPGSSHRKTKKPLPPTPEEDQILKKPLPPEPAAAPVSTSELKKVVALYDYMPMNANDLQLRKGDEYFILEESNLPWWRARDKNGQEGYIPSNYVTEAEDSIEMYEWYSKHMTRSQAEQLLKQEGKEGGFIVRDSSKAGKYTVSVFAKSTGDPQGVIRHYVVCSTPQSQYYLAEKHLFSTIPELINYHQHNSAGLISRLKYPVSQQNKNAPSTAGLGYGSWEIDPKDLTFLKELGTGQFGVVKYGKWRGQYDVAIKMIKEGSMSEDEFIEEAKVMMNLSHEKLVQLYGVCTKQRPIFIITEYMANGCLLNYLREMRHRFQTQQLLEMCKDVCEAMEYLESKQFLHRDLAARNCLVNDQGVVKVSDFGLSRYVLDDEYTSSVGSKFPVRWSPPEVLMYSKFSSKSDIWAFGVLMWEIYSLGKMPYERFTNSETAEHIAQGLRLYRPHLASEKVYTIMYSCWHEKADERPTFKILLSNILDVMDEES
Experimental: as §2

[19] = biological target: T14, PKD2 (Homo sapiens, UniProt Q9BZL6); test: In vitro kinase screening; type: biochemical; details: PKD2, 10 μM concentration
T14 construct: Caliper Life Sciences
Experimental: as §2

[20] = biological target: T15, AKT1 (Homo sapiens, UniProt P31749); test: In vitro kinase screening; type: biochemical; details: AKT1, 10 μM concentration
T15 construct: Caliper Life Sciences (screening service)
Experimental: as §2

[21] = biological target: T16, MEK1 (Homo sapiens, UniProt Q02750); test: In vitro kinase screening; type: biochemical; details: MEK1, 10 μM concentration
T16 construct: Caliper Life Sciences
T16 sequence (Q02750 whole entry, species assumed): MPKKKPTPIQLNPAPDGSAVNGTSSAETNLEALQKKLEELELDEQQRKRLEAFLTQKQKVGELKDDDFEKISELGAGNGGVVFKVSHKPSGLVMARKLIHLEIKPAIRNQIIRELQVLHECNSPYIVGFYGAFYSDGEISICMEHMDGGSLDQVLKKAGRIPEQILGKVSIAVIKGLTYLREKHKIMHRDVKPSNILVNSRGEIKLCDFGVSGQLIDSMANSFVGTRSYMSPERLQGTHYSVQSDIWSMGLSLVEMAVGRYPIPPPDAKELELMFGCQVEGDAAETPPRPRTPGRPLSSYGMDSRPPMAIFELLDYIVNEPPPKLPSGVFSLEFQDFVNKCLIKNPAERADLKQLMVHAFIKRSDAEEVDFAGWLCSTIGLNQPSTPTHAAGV
Experimental: as §2

[22] = biological target: T17, AurA (Homo sapiens, UniProt O14965); test: In vitro kinase screening; type: biochemical; details: 10 μM concentration
T17 construct: Caliper Life Sciences (screening service)
Experimental: as §2

[23] = biological target: T18, MEK2 (Homo sapiens, UniProt P36507); test: In vitro kinase screening; type: biochemical; details: MEK2, 10 μM concentration
T18 construct: Caliper Life Sciences
Experimental: as §2

[24] = biological target: T19, MARK1 (Homo sapiens, UniProt Q9P0L2); test: In vitro kinase screening; type: biochemical; details: MARK1, 10 μM concentration
T19 construct: Caliper Life Sciences
Experimental: as §2

[25] = biological target: T20, PIM2 (Homo sapiens, UniProt Q9P1W9); test: In vitro kinase screening; type: biochemical; details: PIM2, 10 μM concentration
T20 construct: Caliper Life Sciences
T20 sequence (Q9P1W9 whole entry, species assumed): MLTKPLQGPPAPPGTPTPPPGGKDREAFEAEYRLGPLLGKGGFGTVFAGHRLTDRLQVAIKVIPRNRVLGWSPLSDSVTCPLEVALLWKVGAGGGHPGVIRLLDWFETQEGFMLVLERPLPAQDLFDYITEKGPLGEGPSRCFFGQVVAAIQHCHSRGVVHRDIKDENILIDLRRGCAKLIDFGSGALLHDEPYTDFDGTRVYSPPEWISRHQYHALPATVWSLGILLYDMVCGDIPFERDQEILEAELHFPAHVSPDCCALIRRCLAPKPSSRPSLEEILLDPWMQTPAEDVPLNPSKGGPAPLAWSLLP
Experimental: as §2

[26] = biological target: T21, PKA (Homo sapiens, UniProt P17612); test: In vitro kinase screening; type: biochemical; details: 10 μM concentration
T21 construct: Caliper Life Sciences
Experimental: as §2

[27] = biological target: T22, p70S6K (Homo sapiens, UniProt P23443); test: In vitro kinase screening; type: biochemical; details: 10 μM concentration
T22 construct: Caliper Life Sciences
Experimental: as §2

[28] = biological target: T23, SGK1 (Homo sapiens, UniProt O00141); test: In vitro kinase screening; type: biochemical; details: SGK1, 10 μM concentration
T23 construct: Caliper Life Sciences
T23 sequence (O00141 whole entry, species assumed): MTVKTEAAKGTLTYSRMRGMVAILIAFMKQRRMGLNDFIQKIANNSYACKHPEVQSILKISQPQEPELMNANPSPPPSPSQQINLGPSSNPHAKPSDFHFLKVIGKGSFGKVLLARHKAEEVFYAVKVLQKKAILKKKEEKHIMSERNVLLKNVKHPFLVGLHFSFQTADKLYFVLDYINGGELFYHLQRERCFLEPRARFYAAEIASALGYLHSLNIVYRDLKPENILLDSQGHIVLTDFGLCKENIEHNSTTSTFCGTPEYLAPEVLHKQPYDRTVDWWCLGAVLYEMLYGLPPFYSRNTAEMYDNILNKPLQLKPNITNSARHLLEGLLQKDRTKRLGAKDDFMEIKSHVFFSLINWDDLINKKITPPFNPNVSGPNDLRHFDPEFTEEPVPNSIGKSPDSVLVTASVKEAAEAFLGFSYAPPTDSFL
Experimental: as §2

[29] = biological target: T24, INSR (Homo sapiens, UniProt P06213); test: In vitro kinase screening; type: biochemical; details: 10 μM concentration
T24 construct: Caliper Life Sciences (screening service)
T24 sequence (P06213 28-1382): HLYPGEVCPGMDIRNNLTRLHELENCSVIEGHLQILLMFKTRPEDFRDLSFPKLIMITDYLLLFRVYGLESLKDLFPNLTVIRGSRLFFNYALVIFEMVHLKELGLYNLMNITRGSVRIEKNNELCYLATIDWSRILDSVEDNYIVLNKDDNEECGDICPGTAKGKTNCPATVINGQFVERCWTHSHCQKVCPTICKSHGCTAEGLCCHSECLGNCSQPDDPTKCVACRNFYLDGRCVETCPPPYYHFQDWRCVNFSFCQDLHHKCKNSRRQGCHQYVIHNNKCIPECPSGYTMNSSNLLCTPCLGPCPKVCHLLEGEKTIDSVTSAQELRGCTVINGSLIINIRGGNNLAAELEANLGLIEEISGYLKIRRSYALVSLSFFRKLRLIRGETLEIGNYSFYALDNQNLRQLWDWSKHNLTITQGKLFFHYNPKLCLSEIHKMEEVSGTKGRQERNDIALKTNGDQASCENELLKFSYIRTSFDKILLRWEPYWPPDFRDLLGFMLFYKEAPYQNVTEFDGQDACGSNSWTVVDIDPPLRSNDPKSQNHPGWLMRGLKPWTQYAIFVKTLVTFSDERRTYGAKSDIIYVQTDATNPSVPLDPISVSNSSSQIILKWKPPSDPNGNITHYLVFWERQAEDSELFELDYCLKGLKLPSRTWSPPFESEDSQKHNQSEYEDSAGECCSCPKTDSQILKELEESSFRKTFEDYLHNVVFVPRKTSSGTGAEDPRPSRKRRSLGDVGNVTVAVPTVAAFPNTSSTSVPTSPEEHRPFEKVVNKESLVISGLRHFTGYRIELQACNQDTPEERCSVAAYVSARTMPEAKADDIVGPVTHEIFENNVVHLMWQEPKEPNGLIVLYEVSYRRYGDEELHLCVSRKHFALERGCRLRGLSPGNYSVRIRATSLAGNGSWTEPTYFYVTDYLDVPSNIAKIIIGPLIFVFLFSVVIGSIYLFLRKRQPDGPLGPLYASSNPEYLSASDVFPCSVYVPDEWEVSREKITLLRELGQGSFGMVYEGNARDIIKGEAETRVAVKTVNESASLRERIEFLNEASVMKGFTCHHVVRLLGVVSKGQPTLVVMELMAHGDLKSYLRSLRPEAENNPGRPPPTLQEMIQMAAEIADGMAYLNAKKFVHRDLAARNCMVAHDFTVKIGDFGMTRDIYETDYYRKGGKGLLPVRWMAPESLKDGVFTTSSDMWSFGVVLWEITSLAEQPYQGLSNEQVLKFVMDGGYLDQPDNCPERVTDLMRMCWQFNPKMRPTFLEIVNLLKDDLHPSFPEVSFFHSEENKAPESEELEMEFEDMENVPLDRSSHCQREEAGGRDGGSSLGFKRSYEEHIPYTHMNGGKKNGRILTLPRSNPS
Experimental: as §2

[30] = tested on: CAMK2; test: In vitro kinase screening; type: biochemical; details: CAMK2, 10 μM concentration
Experimental: as §2

[31] = biological target: T25, IRAK4 (Homo sapiens, UniProt Q9NWZ3); test: In vitro kinase screening; type: biochemical; details: IRAK4, 10 μM concentration
T25 construct: Caliper Life Sciences (screening service)
T25 sequence (Q9NWZ3 whole entry): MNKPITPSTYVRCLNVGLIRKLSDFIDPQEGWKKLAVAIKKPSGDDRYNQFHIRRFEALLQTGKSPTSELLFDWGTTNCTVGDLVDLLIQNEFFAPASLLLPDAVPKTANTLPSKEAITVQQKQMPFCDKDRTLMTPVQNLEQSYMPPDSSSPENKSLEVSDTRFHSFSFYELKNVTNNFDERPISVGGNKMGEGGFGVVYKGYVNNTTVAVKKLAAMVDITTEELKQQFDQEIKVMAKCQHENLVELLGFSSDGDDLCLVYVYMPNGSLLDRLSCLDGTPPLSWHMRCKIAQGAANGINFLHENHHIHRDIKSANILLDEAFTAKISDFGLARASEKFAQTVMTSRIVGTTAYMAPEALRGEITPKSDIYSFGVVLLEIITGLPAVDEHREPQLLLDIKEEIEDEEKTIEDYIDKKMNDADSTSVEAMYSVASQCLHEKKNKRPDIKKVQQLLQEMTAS
Experimental: as §2

[32] = biological target: T26, MET (Homo sapiens, UniProt P08581); test: In vitro kinase screening; type: biochemical; details: 10 μM concentration
T26 construct: Caliper Life Sciences
Experimental: as §2

[33] = biological target: T27, AKT2 (Homo sapiens, UniProt P31751); test: In vitro kinase screening; type: biochemical; details: AKT2, 10 μM concentration
T27 construct: Caliper Life Sciences (screening service)
Experimental: as §2

SMILES: NCCN1C(=O)S/C(=C\CCC2CCCCC2)C1=O [Example 4, 3-(2-aminoethyl)-5-(3-cyclohexylpropylidene)thiazolidine-2,4-dione]
- IC50 [1]: 17.9 µM
- IC50 [2]: 2.21 µM
- IC50 [3]: 4.51 µM
- IC50 [4]: 4.46 µM
- IC50 [5]: 4.8 µM
- inhibition at 10 µM [6]: 6%
- inhibition at 10 µM [7]: 21%
- inhibition at 10 µM [8]: -13%
- inhibition at 10 µM [9]: 0%
- inhibition at 10 µM [10]: -28%
- inhibition at 10 µM [11]: -2%
- inhibition at 10 µM [12]: 71%
- inhibition at 10 µM [13]: 0%
- inhibition at 10 µM [14]: -5%
- inhibition at 10 µM [15]: 10%
- inhibition at 10 µM [16]: 2%
- inhibition at 10 µM [17]: 0%
- inhibition at 10 µM [18]: 12%
- inhibition at 10 µM [19]: 0%
- inhibition at 10 µM [20]: 3%
- inhibition at 10 µM [21]: 69%
- inhibition at 10 µM [22]: -4%
- inhibition at 10 µM [23]: 27%
- inhibition at 10 µM [24]: 0%
- inhibition at 10 µM [25]: 38%
- inhibition at 10 µM [26]: -3%
- inhibition at 10 µM [27]: 5%
- inhibition at 10 µM [28]: 14%
- inhibition at 10 µM [29]: -2%
- % Inhibition [30]: 60%
- inhibition at 10 µM [31]: -1%
- inhibition at 10 µM [32]: -1%
- inhibition at 10 µM [33]: 8%

Source: patent US20110166191A1, “3-(2-amino-ethyl)-5-(3-cyclohexyl-propylidene)-thiazolidine-2,4-dione and its derivatives as multiple signaling pathway inhibitors and for the treatment of cancer” (priority 2010, published 2011)
